Assay results as given in patent US10689387B2, “Crystalline form of (1R,2R)-2-[4-(3-methyl-1H-pyrazol-5-yl)benzoyl]-N-(4-oxo-4,5,6,7-tetrahydropyrazolo[1,5-A]pyrazin-3-yl)cyclohexanecarboxamide” (AstraZeneca AB, priority 2016, dated 2020).

Tested on: LTB4 production in fresh human whole blood
Experiment: FLAP Whole Blood Assay (Test B), inhibition of LTB4 production
Assay type: cell-based
Settings: method B: 4 h incubation at 37° C., calcium ionophore A23187 stimulation
Procedure: FLAP Whole Blood Assay (Test B)
Compounds were tested for the inhibition of LTB4 production in fresh human whole blood obtained by venapuncture using heparin to prevent clotting. 1.5 μL compounds or DMSO carrier were dispensed into the wells of a 96-well deep-well plate in 3-fold dilution series. 500 μL heparnised whole blood was then added followed by incubation at 37° C. for 30 min (method A) or 4 h (method B). 100 μL blood was subsequently transferred in triplicate to pre-dispensed 0.5 μL 2 mM calcium ionophore (calcimycin; A23187) in a second 96-well plate. Following incubation at 37° C. for 20 min, the assays were stopped by adding 10 μL of stop solution (100 mM EGTA, pH 7.4) and the plate was transferred to ice. The plate was centrifuged at 3000 rpm at 4° C. for 10 min and 10 μL plasma was transferred to a fresh 96 well plate containing 90 μL pre-dispensed EIA assay buffer (0.1 M phosphate buffer+0.1% BSA). LTB4 was then measured using reagents from a commercial EIA (Cayman Chemicals). […] Inhibition of LTB4 production was defined as the LTB4 level in the presence of a given concentration of test compound expressed as a % of the LTB4 level in the presence of DMSO. IC50 values were determined by plotting % inhibition versus log compound concentration and using a one site dose response model. […]

IC50: 40 nM
SMILES: Cc1cc(-c2ccc(C(=O)[C@@H]3CCCC[C@H]3C(=O)Nc3cnn4c3C(=O)NCC4)cc2)[nH]n1 [Compound (I), (1R,2R)-2-[4-(3-methyl-1H-pyrazol-5-yl)benzoyl]-N-(4-oxo-4,5,6,7-tetrahydropyrazolo[1,5-a]pyrazin-3-yl)cyclohexanecarboxamide]
